Results reported in ChEMBL document CHEMBL1129930, “Analogues of methotrexate in rheumatoid arthritis. 2. Effects of 5-deazaaminopterin, 5,10-dideazaaminopterin, and analogues on type II collagen-induced arthritis in mice” (J Med Chem, 1997).

Assays:
Mus musculus [1] = assay: Tested for antiinflammatory activity on mouse type II collagen arthritis as Paw swelling of all animals in each group on day 44 at intraperitoneal dose of 1.5 mg/kg; format: functional
Mus musculus [2] = assay: Tested for antiinflammatory activity on mouse type II collagen arthritis as Paw swelling of all animals in each group on day 44 at intraperitoneal dose of 3 mg/kg; format: functional
Mus musculus [3] = assay: Incidence of disease (mouse type II collagen) was scored as the percentage of animals within each experimental group that exhibited joint or limb inflammation on day 30 at intraperitoneal dose of 6 mg/kg; format: functional
Mus musculus [4] = assay: Incidence of disease (mouse type II collagen) was scored as the percentage of animals within each experimental group that exhibited joint or limb inflammation on day 37 at intraperitoneal dose of 1.5 mg/kg; format: functional
Mus musculus [5] = assay: Tested for antiinflammatory activity on mouse type II collagen arthritis as Paw swelling of all animals in each group on day 30 at intraperitoneal dose of 1.5 mg/kg; format: functional
Mus musculus [6] = assay: Incidence of disease (mouse type II collagen) was scored as the percentage of animals within each experimental group that exhibited joint or limb inflammation on day 23 at intraperitoneal dose of 6 mg/kg; format: functional
Mus musculus [7] = assay: Incidence of disease (mouse type II collagen) was scored as the percentage of animals within each experimental group that exhibited joint or limb inflammation on day 30 at intraperitoneal dose of 3 mg/kg; format: functional
Mus musculus [8] = assay: Incidence of disease (mouse type II collagen) was scored as the percentage of animals within each experimental group that exhibited joint or limb inflammation on day 23 at intraperitoneal dose of 3 mg/kg; format: functional
Mus musculus [9] = assay: Tested for antiinflammatory activity on mouse type II collagen arthritis as Paw swelling of all animals in each group on day 23 at intraperitoneal dose of 1.5 mg/kg; format: functional
L1210 = assay: Concentration required to inhibit the growth of L1210 cells.; format: functional, cell-based; details: Mus musculus
Mus musculus [10] = assay: Tested for antiinflammatory activity on mouse type II collagen arthritis as Paw swelling of all animals in each group on day 30 at intraperitoneal dose of 6 mg/kg; format: functional
Mus musculus [11] = assay: Incidence of disease (mouse type II collagen) was scored as the percentage of animals within each experimental group that exhibited joint or limb inflammation on day 37 at intraperitoneal dose of 3 mg/kg; format: functional
Mus musculus [12] = assay: Incidence of disease (mouse type II collagen) was scored as the percentage of animals within each experimental group that exhibited joint or limb inflammation on day 44 at intraperitoneal dose of 6 mg/kg; format: functional
[13] = Concentration required to inhibit the growth of chang liver cells.; format: functional; details: Homo sapiens
Mus musculus [14] = assay: Incidence of disease (mouse type II collagen) was scored as the percentage of animals within each experimental group that exhibited joint or limb inflammation on day 23 at intraperitoneal dose of 1.5 mg/kg; format: functional
Mus musculus [15] = assay: Tested for antiinflammatory activity on mouse type II collagen arthritis as Paw swelling of all animals in each group on day 37 at intraperitoneal dose of 1.5 mg/kg; format: functional
Mus musculus [16] = assay: Tested for antiinflammatory activity on mouse type II collagen arthritis as Paw swelling of all animals in each group on day 30 at intraperitoneal dose of 3 mg/kg; format: functional
Mus musculus [17] = assay: Incidence of disease (mouse type II collagen) was scored as the percentage of animals within each experimental group that exhibited joint or limb inflammation on day 44 at intraperitoneal dose of 3 mg/kg; format: functional
Mus musculus [18] = assay: Tested for antiinflammatory activity on mouse type II collagen arthritis as Paw swelling of all animals in each group on day 37 at intraperitoneal dose of 6 mg/kg; format: functional
Mus musculus [19] = assay: Incidence of disease (mouse type II collagen) was scored as the percentage of animals within each experimental group that exhibited joint or limb inflammation on day 37 at intraperitoneal dose of 6 mg/kg; format: functional
Mus musculus [20] = assay: Tested for antiinflammatory activity on mouse type II collagen arthritis as Paw swelling of all animals in each group on day 23 at intraperitoneal dose of 6 mg/kg; format: functional
Mus musculus [21] = assay: Incidence of disease (mouse type II collagen) was scored as the percentage of animals within each experimental group that exhibited joint or limb inflammation on day 30 at intraperitoneal dose of 1.5 mg/kg; format: functional
Mus musculus [22] = assay: Tested for antiinflammatory activity on mouse type II collagen arthritis as Paw swelling of all animals in each group on day 23 at intraperitoneal dose of 3 mg/kg; format: functional
Mus musculus [23] = assay: Incidence of disease (mouse type II collagen) was scored as the percentage of animals within each experimental group that exhibited joint or limb inflammation on day 44 at intraperitoneal dose of 1.5 mg/kg; format: functional
Mus musculus [24] = assay: Tested for antiinflammatory activity on mouse type II collagen arthritis as Paw swelling of all animals in each group on day 44 at intraperitoneal dose of 6 mg/kg; format: functional
Mus musculus [25] = assay: Tested for antiinflammatory activity on mouse type II collagen arthritis as Paw swelling of all animals in each group on day 37 at intraperitoneal dose of 3 mg/kg; format: functional

| SMILES | Paw swelling (Mus musculus [1]) | Paw swelling (Mus musculus [2]) | Animals (Mus musculus [3]) | Animals (Mus musculus [4]) | Paw swelling (Mus musculus [5]) | Animals (Mus musculus [6]) | Animals (Mus musculus [7]) | Animals (Mus musculus [8]) | Paw swelling (Mus musculus [9]) | IC50 (L1210) | Paw swelling (Mus musculus [10]) | Animals (Mus musculus [11]) | Animals (Mus musculus [12]) | Animals (Mus musculus [14]) | Paw swelling (Mus musculus [15]) | Paw swelling (Mus musculus [16]) | Animals (Mus musculus [17]) | Animals (Mus musculus [21]) | Paw swelling (Mus musculus [22]) | Animals (Mus musculus [23]) | other results |
| --- | --- | --- | --- | --- | --- | --- | --- | --- | --- | --- | --- | --- | --- | --- | --- | --- | --- | --- | --- | --- | --- |
| C#CCN(Cc1cnc2nc(N)nc(N)c2c1C)c1ccc(C(=O)NC(CCC(=O)O)C(=O)O)cc1 (configuration not stated) | 2.37 mm | 2.38 mm | 25% | 50% | 2.31 mm | 12% | 25% | 0% | 2.16 mm | 1.6 nM | 2.21 mm | 50% | 62% | 0% | 2.33 mm | 2.27 mm | 62% | 25% | 2.12 mm | 62% | IC50 [13]: 593 nM; Paw swelling (Mus musculus [18]): 2.32 mm; Animals (Mus musculus [19]): 62%; Paw swelling (Mus musculus [20]): 2.23 mm; Paw swelling (Mus musculus [24]): 2.46 mm |
| CCC(Cc1cnc2nc(N)nc(N)c2c1)c1ccc(C(=O)NC(CCC(=O)O)C(=O)O)cc1 (configuration not stated) | 2.59 mm | 2.7 mm | 100% | 88% | 2.31 mm | 12% | 88% | 25% | 2.17 mm | 75 nM | 2.57 mm | 100% | 100% | 25% | 2.48 mm | 2.43 mm | 100% | 62% | 2.26 mm | 88% | Paw swelling (Mus musculus [25]): 2.67 mm; IC50 [13]: 12 nM; Paw swelling (Mus musculus [18]): 2.8 mm; Animals (Mus musculus [19]): 88%; Paw swelling (Mus musculus [20]): 2.2 mm; Paw swelling (Mus musculus [24]): 2.76 mm |
| Cc1c(CN(C)c2ccc(C(=O)NC(CCC(=O)O)C(=O)O)cc2)cnc2nc(N)nc(N)c12 (configuration not stated) | 2.44 mm | 2.48 mm | – | 50% | 2.26 mm | – | 50% | 0% | – | 1.3 nM | – | 50% | – | 0% | 2.42 mm | 2.26 mm | 100% | 12% | 2.1 mm | 62% | Paw swelling (Mus musculus [25]): 2.47 mm; IC50 [13]: 78 nM |
| CCc1c(CN(C)c2ccc(C(=O)NC(CCC(=O)O)C(=O)O)s2)cnc2nc(N)nc(N)c12 (configuration not stated) | 2.37 mm | 2.45 mm | 0% | 38% | 2.2 mm | 0% | 0% | 0% | 2.24 mm | – | 2.13 mm | 12% | 50% | 25% | 2.26 mm | 2.15 mm | 88% | 12% | 2.14 mm | 50% | Paw swelling (Mus musculus [25]): 2.2 mm; Paw swelling (Mus musculus [18]): 2.16 mm; Animals (Mus musculus [19]): 12%; Paw swelling (Mus musculus [20]): 2.12 mm; Paw swelling (Mus musculus [24]): 2.32 mm |
